Molecular target: T1, VvHPL1 (VvMTh-HPL1; HPL1) (Vitis vinifera, UniProt F6HID6)
T1 sequence (F6HID6 1-487): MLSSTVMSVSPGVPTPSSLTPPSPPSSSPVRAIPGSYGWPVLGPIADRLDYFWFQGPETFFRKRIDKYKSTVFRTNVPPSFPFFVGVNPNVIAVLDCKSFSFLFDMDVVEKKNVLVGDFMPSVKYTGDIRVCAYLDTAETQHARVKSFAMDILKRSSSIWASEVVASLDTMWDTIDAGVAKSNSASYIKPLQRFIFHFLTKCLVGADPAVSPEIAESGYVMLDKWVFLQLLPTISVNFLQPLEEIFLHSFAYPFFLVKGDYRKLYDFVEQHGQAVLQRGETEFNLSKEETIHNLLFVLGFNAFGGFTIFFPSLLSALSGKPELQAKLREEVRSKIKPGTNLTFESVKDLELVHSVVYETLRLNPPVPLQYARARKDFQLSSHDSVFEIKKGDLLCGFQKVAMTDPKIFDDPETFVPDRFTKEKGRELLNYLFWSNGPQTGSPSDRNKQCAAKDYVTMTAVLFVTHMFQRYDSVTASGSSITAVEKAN
Experiment: SBSE TD-GC-MS of volatile products
Format: biochemical
Conditions: 40 µM substrate, 50 mM sodium phosphate pH 7.0, ambient temperature, 2 h; enzyme partially purified

| SMILES | SBSE TD-GC-MS of volatile products |
| --- | --- |
| CCCCC[C@@H](/C=C/C=C\CCCCCCCC(=O)O)OO [13(S)-hydroperoxy-9(Z), 11(E)-octadecadienoic acid] | The major product from the conversion of 13-HPOD was hexanal |
| CC/C=C\C[C@@H](/C=C/C=C\CCCCCCCC(=O)O)OO [13(S)-hydroperoxy-9(Z),11(E), 15(Z)-octadecatrienoic acid] | 13-HPOT as substrate yielded cis-3-hexenal and trans-2-hexenal |

— paper PMC5972561, “Grapevine fatty acid hydroperoxide lyase generates actin-disrupting volatiles and promotes defence-related cell death” (Journal of Experimental Botany, 2018)
